Measurements published in US12629400B2, “Pharmaceutical compositions and methods for treating or preventing bacterial infections in humans and in animals” (LaGray, Inc., priority 2023, dated 2026).
≈ marks a conversion by molar mass, not a printed value. Read-outs that look alike come from different tables or passages of the source.

Assays:
Type in all cases: cell-based
[1] = tested on: S. pneumoniae (DRSP); experiment: Agar dilution antibacterial susceptibility (MIC); conditions: Streptococcus pneumoniae
[2] = tested on: Hemophilus influenzae; experiment: Agar dilution antibacterial susceptibility (MIC); conditions: Haemophilus influenzae
[3] = tested on: Klebsiella pneumoniae; experiment: Agar dilution antibacterial susceptibility (MIC)
[4] = tested on: Moraxella catarrhalis; experiment: Agar dilution antibacterial susceptibility (MIC)
[5] = tested on: Enterococcus faecium; experiment: Agar dilution antibacterial susceptibility (MIC)
[6] = tested on: E. faecium (VRE); experiment: Agar dilution antibacterial susceptibility (MIC); conditions: Enterococcus faecium
[7] = tested on: Staphylococcus aureus; experiment: Agar dilution antibacterial susceptibility (MIC)
[8] = tested on: Legionella pneumophila; experiment: microbe, parasite or virus in culture
[9] = tested on: Streptococcus pneumoniae; experiment: Agar dilution antibacterial susceptibility (MIC)
[10] = tested on: Streptococcus pyogenes; experiment: Agar dilution antibacterial susceptibility (MIC)
[11] = tested on: S. aureus (MRSA); experiment: Agar dilution antibacterial susceptibility (MIC); conditions: Staphylococcus aureus
[12] = tested on: Chlamydia pneumoniae; experiment: Agar dilution antibacterial susceptibility (MIC)
[13] = tested on: Clostridium difficile; experiment: Agar dilution antibacterial susceptibility (MIC); conditions: Clostridioides difficile
[14] = S. pneumoniae (DRSP), agar dilution, read-out: MIC
[15] = Hemophilus influenzae, agar dilution, read-out: MIC
[16] = E. faecium (VRE), agar dilution, read-out: MIC
[17] = S. aureus (MRSA), agar dilution, read-out: MIC

O=C(O)c1cn(C2CC2)c2cc(N3CCNCC3)c(F)cc2c1=O [Ciprofloxacin, ciprofloxacin]
MIC [1, 14]: 2 µg/mL (≈ 6.04 µM) | MIC [2, 15]: 0.15 µg/mL (≈ 0.453 µM) | MIC ([3]; agar dilution, read-out: MIC): 0.06 µg/mL (≈ 0.181 µM) | MIC ([4]; agar dilution, read-out: MIC): 0.25 µg/mL (≈ 0.754 µM) | MIC ([5]; agar dilution, read-out: MIC): 0.5 µg/mL (≈ 1.51 µM) | MIC [6, 16]: 2 µg/mL (≈ 6.04 µM) | MIC ([7]; agar dilution, read-out: MIC): 0.06 µg/mL (≈ 0.181 µM) | MIC [8]: 0.06 µg/mL (≈ 0.181 µM) | MIC ([9]; agar dilution, read-out: MIC): 0.13 µg/mL (≈ 0.392 µM) | MIC ([10]; agar dilution, read-out: MIC): 0.5 µg/mL (≈ 1.51 µM) | MIC [11, 17]: 32 µg/mL (≈ 96.6 µM) | MIC ([12]; agar dilution, read-out: MIC): 0.12 µg/mL (≈ 0.362 µM)

CN(C)c1ccc(O)c2c1C[C@H]1C[C@H]3[C@H](N(C)C)C(O)=C(C(N)=O)C(=O)[C@@]3(O)C(O)=C1C2=O [Minocycline, minocycline]
MIC [1, 14]: 16 µg/mL (≈ 35 µM) | MIC [2, 15]: 0.25 µg/mL (≈ 0.546 µM) | MIC ([3]; agar dilution, read-out: MIC): 0.13 µg/mL (≈ 0.284 µM) | MIC ([4]; agar dilution, read-out: MIC): 0.03 µg/mL (≈ 0.0656 µM) | MIC ([5]; agar dilution, read-out: MIC): 0.5 µg/mL (≈ 1.09 µM) | MIC [6, 16]: 16 µg/mL (≈ 35 µM) | MIC ([7]; agar dilution, read-out: MIC): 0.25 µg/mL (≈ 0.546 µM) | MIC [8]: 0.12 µg/mL (≈ 0.262 µM) | MIC [13]: 0.5 µg/mL (≈ 1.09 µM) | MIC ([9]; agar dilution, read-out: MIC): 0.5 µg/mL (≈ 1.09 µM) | MIC ([10]; agar dilution, read-out: MIC): 0.12 µg/mL (≈ 0.262 µM) | MIC [11, 17]: 8 µg/mL (≈ 17.5 µM) | MIC ([12]; agar dilution, read-out: MIC): 0.5 µg/mL (≈ 1.09 µM)

CN[C@H](CC(C)C)C(=O)N[C@H]1C(=O)N[C@@H](CC(N)=O)C(=O)N[C@H]2C(=O)N[C@H]3C(=O)N[C@H](C(=O)N[C@H](C(=O)O)c4cc(O)cc(O)c4-c4cc3ccc4O)[C@H](O)c3ccc(c(Cl)c3)Oc3cc2cc(c3O[C@@H]2O[C@H](CO)[C@@H](O)[C@H](O)[C@H]2O[C@H]2C[C@](C)(N)[C@H](O)[C@H](C)O2)Oc2ccc(cc2Cl)[C@H]1O [Vancomycin, vancomycin]
MIC [1]: 0.5 µg/mL (≈ 0.345 µM) | MIC [2]: 0.06 µg/mL (≈ 0.0414 µM) | MIC [3]: 0.5 µg/mL (≈ 0.345 µM) | MIC [4]: 0.01 µg/mL (≈ 0.0069 µM) | MIC [5]: 1 µg/mL (≈ 0.69 µM) | MIC ([6]; VRE): 125 µg/mL (≈ 86.3 µM) | MIC [7]: 0.13 µg/mL (≈ 0.0897 µM) | MIC [8]: 0.06 µg/mL (≈ 0.0414 µM) | MIC [13]: 0.5 µg/mL (≈ 0.345 µM) | MIC [9]: 0.25 µg/mL (≈ 0.173 µM) | MIC [10]: 0.06 µg/mL (≈ 0.0414 µM) | MIC ([11]; MRSA): 2 µg/mL (≈ 1.38 µM) | MIC [12]: 0.5 µg/mL (≈ 0.345 µM)
